Columns and labels:
MDA-MB-231 cells = experiment: Cell proliferation assay (crystal violet); type: cell-based; conditions: various concentrations, 72 hours
Procedure: MDA-MB-231 cells treated with a compound of the present application (e.g., compound 1-1, 2-5, 1-14 and 3-8, respectively) were seeded at a density of 5×10^4cells/well in 12-well plate and incubated at 37° C. with 5% CO2. After 72 hours of culturing, the cells were washed with PBS, fixed in 4% formaldehyde for 15 minutes and stained with 0.1% crystal violet for 20 minutes. Cells were washed with water and the staining was extracted with 10% acetic acid for 20 minutes and absorbance was measured at 590 nm. The experiments were performed in triplicates.

[1] = system: MDA-MB-231 cells (breast cancer cells); experiment: Transwell cell migration assay; type: cell-based; conditions: MDA-MB-231, 24 h; for relative migration (%) of cells: FIG. 61; for migrated cells: FIGS. 62-67
Procedure: MDA-MB-231 cells (breast cancer cells) were starved in 0.5% serum-DMEM for 8 hours. For the migration assay, a total of 5×10^4cells were suspended in 500 μL of serum-free DMEM medium and seeded into the upper chamber of a […] pore size insert. Then, 750 μL of DMEM (containing 10% FBS) with or without the compound of the present application was added to the lower compartment. After incubation at 37° C. for 24 h, migrated cells were washed with PBS, fixed in 4% PFA and stained for 30 min in crystal violet solution (0.1% crystal violet). […] Each insert was photographed in 3 random fields at a magnification of 40×.

wild type CK1δ = wild type CK1δ (Homo sapiens, UniProt P48730); experiment: CK1δ kinase assay (Kinase-Glo); type: biochemical; conditions: 10 μM ATP, 2 nM wild type CK1δ, 85 min at 25° C.; read-out: CK1δ inhibition (IC50)
Chain of wild type CK1δ (P48730 whole entry): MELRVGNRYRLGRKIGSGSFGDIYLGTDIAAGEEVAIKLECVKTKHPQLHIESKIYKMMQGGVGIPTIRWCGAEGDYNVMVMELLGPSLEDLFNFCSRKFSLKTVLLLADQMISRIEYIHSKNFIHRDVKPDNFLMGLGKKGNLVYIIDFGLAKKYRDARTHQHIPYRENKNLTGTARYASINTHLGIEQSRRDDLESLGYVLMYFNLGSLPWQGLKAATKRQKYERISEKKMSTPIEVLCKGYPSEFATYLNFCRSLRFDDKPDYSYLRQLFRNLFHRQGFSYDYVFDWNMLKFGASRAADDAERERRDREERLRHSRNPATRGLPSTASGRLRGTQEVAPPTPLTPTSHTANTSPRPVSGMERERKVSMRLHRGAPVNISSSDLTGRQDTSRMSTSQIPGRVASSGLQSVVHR
Procedure: The CK1δ kinase assay was performed with a buffer (40 μL, pH 7.5) containing 50 mM Tris, 10 mM MgCl2, 1 mM dithiothreitol, 100 μg/mL BSA with 10 μM ATP, 2 nM wild type CK1δ, and 42 μM peptide substrate PLSRTLpSVASLPGL (Flotow et al., 1990) in the presence of 1 μL of a CK1δ inhibitor (e.g., a compound of the present application) or 4% DMSO (e.g., as control). The reaction mixture was incubated for 85 min at 25° C.; detection was carried out as described for the Kinase-Glo Assay (Promega). Luminescent output was measured on the Perkin Elmer Envision plate reader (PerkinElmer, Waltham, Mass.).

in vitro = conditions: human, Caco-2, pH 7.4
Procedure: 1) 50 μL and 25 mL of cell culture medium were added to each well of the Transwell insert and reservoir, respectively. And then the HTS transwell plates were incubated at 37° C., 5% CO2 for 1 hour before cell seeding.
2) Caco-2 cells were diluted to 6. 86×10^5 cells/mL with culture medium and 50 μL of cell suspension were dispensed into the filter well of the 96-well HTS Transwell plate. Cells were cultivated for 14-18 days in a cell culture incubator at 37° C., 5% CO2, 95% relative humidity. Cell culture medium was replaced every other day, beginning no later than 24 hours after initial plating.
10 mM stock solutions of test compounds were prepared in DMSO. The stock solutions of positive controls were prepared in DMSO at the concentration of 10 mM. Digoxin and propranolol were used as control compounds in this assay.
1) Medium was removed from the reservoir and each Transwell insert and replaced with prewarmed fresh culture medium.
2) Transepithelial electrical resistance (TEER) across the monolayer was measured using Millicell Epithelial Volt-Ohm measuring system (Millipore, USA).
The TEER value was calculated according to the following equation: TEER measurement (ohms) * Area of membrane (cm^2)=TEER value (ohm·cm^2) TEER value should be greater than 230 ohm·cm^2, which indicates the well-qualified Caco-2 monolayer.
1) The Caco-2 plate was removed from the incubator and washed twice with pre-warmed HMS (10 mM HEPES, pH 7.4), and then incubated at 37° C. for 30 minutes.
2) The stock solutions of control compounds and test compounds were diluted in DMSO to get 1 mM solutions and then diluted with HMS (10 mM HEPES, pH 7.4) get 5 μM working solutions. The final concentration of DMSO in the incubation system was 0.5%.
3) To determine the rate of drug transport in the apical to basolateral direction. 125 μL of 5 μM working solution of control compound and test compounds were added to the Transwell insert (apical compartment), and transfer 50 μL sample (D0 sample) immediately from the apical compartment to a new 96-well plate. Fill the wells in the receiver plate (basolateral compartment) with 235 μL of MSS (10 mM HEPES, pH 7.4).
4) To determine the rate of drug transport in the basolateral to apical direction. 285 μL of 5 μM working solution of control compound and test compounds were to the receiver plate wells (basolateral compartment), and transfer 50 μL sample (D0 sample) immediately from the basolateral compartment to a new 96-well plate. Fill the wells in the Transwell insert (apical compartment) with 75 μL of MSS (10 mM HEPES, pH 7.4). The assay was performed in duplicate.
5) The plates were incubated at 37° C. for 2 hours.
6) At the end of the incubation, 50 μL samples from donor sides (apical compartment for Ap→Bl flux, and basolateral compartment for Bl→Ap) and receiver sides (basolateral compartment for Ap→Bl flux, and apical compartment for Bl→Ap) were transferred to wells of a new 96-well plate, followed by the addition of 4 volume of cold methanol containing appropriate internal standards (IS). Samples were Vortexed for 5 minutes and then centrifuged at 3,220 g for 40 minutes. An aliquot of 100 μL of the supernatant was mixed with an appropriate volume of ultra-pure water before LC-MS/MS analysis.
7) To determine the Lucifer Yellow leakage after 2-hour transport period, stock solution of Lucifer yellow was prepared in water and diluted with HMS (10 mM HEPES, pH 7.4) to reach the final concentration of 100 μM. 100 μL of the Lucifer yellow solution was added to each Transwell insert (apical compartment), followed by filling the wells in the receiver plate (basolateral compartment) with 300 μL of HBSS (10 mM HEPES, pH 7.4). The plates were Incubated at 37° C. for 30 mins. 80 μL samples were removed directly from the apical and basolateral wells (using the basolateral access holes) and transferred to wells of new 96 wells plates.

[2] = Assay of intrinsic clearance in liver microsomes (human); type: in vitro ADME; conditions: Human liver microsomes 0.5 mg/mL, 2 μM compound, 37° C.; for microsomal CLint at 2 μM: read-out: in vitro CLint (μL/min/mg protein); for half-life at 2 μM: read-out: in vitro t1/2
Procedure: (§1) 1. The master solution was prepared according to Table 11.
(§2) 2. Three separated experiments were performed as follows. a) With NADPH: 10 μL of 20 mg/mL liver microsomes and 40 μL of 10 mM NADPH were added to the incubations. The final concentrations of microsomes and NADPH were 0.5 mg/mL and 1 mM, respectively. b) Without NADPH: 10 μL of 20 mg/mL liver microsomes and 40 μL of ultra-pure H2O were added to the incubations. The final concentration of microsomes was 0.5 mg/mL. c) Heat-inactivated microsomes without NADPH: 10 μL of 20 mg/mL heat-inactivated liver microsomes and 40 μL of ultra-pure H2O were added to the incubations. The final concentration of microsomes was 0.5 mg/mL.
(§3) 3. The reaction was started with the addition of 4 μL of 200 μM test compound solution or control compound solution at the final concentration of 2 μM and carried out at 37° C.
(§4) 4. Aliquots of 50 μL were taken from the reaction solution at 0, 15, 30, 45 and 60 min. The reaction was stopped by the addition of 4 volumes of cold acetonitrile with IS (100 nM alprazolam, 200 nM labetalol, 200 nM caffeine and 2 μM ketoprofen). Samples were centrifuged at 3, 220 g for 40 minutes.
(§5) Peak areas were determined from extracted ion chromatograms. The slope value, k, was determined by linear regression of the natural logarithm of the remaining percentage of the parent drug vs. incubation time curve.
(§6) The in vitro half-life (in vitro t1/2) was determined from the slope value:
(§7) Conversion of the in vitro t1/2 (min) into the in vitro intrinsic clearance (in vitro CLint, in μL/min/mg protein) was done using the following equation (mean of duplicate determinations):
(§8) in vitro CLint=(0.693 * volume of incubation(μl))/(in vitro t1/2 * amount of proteins(mg))

[3] = Assay of intrinsic clearance in liver microsomes (mouse); type: in vitro ADME; conditions: Mouse liver microsomes 0.5 mg/mL, 2 μM compound, 37° C.; for microsomal CLint at 2 μM: read-out: in vitro CLint (μL/min/mg protein); for half-life at 2 μM: read-out: in vitro t1/2
Procedure: as §1, §2, §3, §4, §5, §6, §7, §8

IC50 (wild type CK1δ) [nM] | Papp A→B at 2 h, 5 μM (in vitro) [×10⁻⁶ cm/s] | Papp B→A at 2 h, 5 μM (in vitro) [×10⁻⁶ cm/s] | efflux ratio at 2 h, 5 μM (in vitro) | microsomal CLint at 2 μM [2] [µL/min/mg] | half-life at 2 μM [2] [min] | microsomal CLint at 2 μM [3] [µL/min/mg] | half-life at 2 μM [3] [min] | Compound | relative proliferation (%) of cells (MDA-MB-231 cells) | relative migration (%) of cells [1] | migrated cells [1]
39.7 | 22.8 | 23.9 | 1.05 | 9.7 | 143 | 22.2 | 62.3 | CN1CCn2nc(-c3ccc(F)cc3)c(-c3ccnc(N)c3)c2C1 [Compound 1-59, 4-(2-(4-fluorophenyl)-5-methyl-4,5,6,7-tetrahydropyrazolo[1,5-a]pyrazin-3-yl)pyridin-2-amine] |  |  | 
408 |  |  |  |  |  |  |  | Fc1ccc(-c2nc3c(n2-c2ccncc2)CCCC3)cc1 [Compound 2-5, 2-(4-fluorophenyl)-1-(pyridin-4-yl)-4,5,6,7-tetrahydro-1H-benzo[d]imidazole] | affected in a concentration dependent manner | reduced | suppressed the migration
97400 |  |  |  |  |  |  |  | COc1ccc(Cn2nnc(-c3ccc(F)cc3)c2-c2ccncc2)cc1 [Compound 3-8, 4-(4-(4-fluorophenyl)-1-(4-methoxybenzyl)-1H-1,2,3-triazol-5-yl)pyridine] | affected in a concentration dependent manner |  | 
168 |  |  |  | 7.93 | 175 | 25.2 | 55 | Cn1cc(-c2ccnc3[nH]ncc23)c(-c2ccc(F)cc2)c1C#N [Compound 5-2, 3-(4-fluorophenyl)-1-methyl-4-(1H-pyrazolo[3,4-b]pyridin-4-yl)-1H-pyrrole-2-carbonitrile] |  |  | 

Second part, the molecule before the results:

Compound | IC50 (wild type CK1δ) [nM] | Papp A→B at 2 h, 5 μM (in vitro) [×10⁻⁶ cm/s] | Papp B→A at 2 h, 5 μM (in vitro) [×10⁻⁶ cm/s] | efflux ratio at 2 h, 5 μM (in vitro) | microsomal CLint at 2 μM [2] [µL/min/mg] | half-life at 2 μM [2] [min] | microsomal CLint at 2 μM [3] [µL/min/mg] | half-life at 2 μM [3] [min] | relative proliferation (%) of cells (MDA-MB-231 cells) | relative migration (%) of cells [1] | migrated cells [1]
Nc1nccc(-c2c(-c3ccc(F)cc3)nc3cnccn23)n1 [Compound 1-1, 4-(2-(4-fluorophenyl)imidazo[1,2-a]pyrazin-3-yl)pyrimidin-2-amine] |  |  |  |  |  |  |  |  | affected in a concentration dependent manner | reduced | suppressed the migration
CC(=O)N1CCn2nc(-c3ccc(F)cc3)c(-c3ccncc3)c2C1 [Compound 1-14, 1-(2-(4-fluorophenyl)-3-(pyridin-4-yl)-6,7-dihydropyrazolo[1,5-a]pyrazin-5(4H)-yl)ethan-1-one] | 61.5 |  |  |  |  |  |  |  | affected in a concentration dependent manner | reduced | suppressed the migration
Nc1cc(-c2c(-c3ccc(F)cc3)nn3c2CCC3)ccn1 [Compound 1-57, 4-(2-(4-fluorophenyl)-5,6-dihydro-4H-pyrrolo[1,2-b]pyrazol-3-yl)pyridin-2-amine] | 131 | 19.2 | 17.3 | 0.9 | 104 | 13.4 | 285 | 4.86 |  |  | 

Source: patent publication US20230192699A1, “COMPOUNDS AS CASEIN KINASE INHIBITORS” (GRITSCIENCE BIOPHARMACEUTICALS CO., LTD., priority 2020, published 2023)
